One data set has as its system HIV. To be noted: cited from earlier work; for HIV inhibitory activity: disclosed in earlier patents/applications.
Data set [1] can be described thus: Pharmacokinetic and metabolism study, rat. It counts as in vivo. The procedure:
(§1) The parent tetrabutyrate compound consequently serves as an antivirally effective and useful pro-drug of the latter compound to which it is metabolized in the gut. […] The parent pro-drug was not detected. […] The oral bioactivity of the metabolite compound, measured as [^14 C]-metabolite compound, was determined to be between 28% and 50% in the Rhesus monkey, depending on the vehicle used (e.g., 0.5% methyl cellulose and 0.1% polysorbate in water). […] The blood levels of the metabolite compound, measured as part of a long term SIV infected monkey efficacy study, following oral dosing (high dose 750 mg/kg, low dose 250 mg/kg, administered every eight hours) with the pro-drug, yielded mean trough (cmin) plasma blood levels of the metabolite compound at eight hours post dosing of approximately 10 μg/mL and 6.8 μg/mL for the high and low doses, respectively.

Data set [2] in a line: Pharmacokinetic and metabolism study, Rhesus monkey. In kind it is in vivo. To be noted: for metabolic profiles of either radiolabeled compound (pro-drug, metabolite): monkey, oral, plasma and urine. The procedure:
as §1

A short description of the next data set: Diarrheagenic effect. It counts as in vivo, monkey. To be noted: normal, uninfected monkeys.
In data set [3] the test system is Sheep choroid plexus (SCP) cells. The data set can be described thus: Toxicity of compounds in control wells without virus, graded morphologically. It counts as cell-based. Particulars: 0 to 4 scale, Table 1. The procedure: (§2) Sheep choroid plexus (SCP) cells were obtained from American Type Culture Collection (ATCC) catalogue number CRL 1700 and were routinely passaged in vitro in Dulbecco's Modified Eagles (DME) medium supplemented with 20% fetal bovine serum (FBS). SCP cells were passaged once per week at a 1:2 or 1:3 split ratio. Visna was titrated by plaque assay in six-well plates. Virus pools were stored at -70° C.
(§3) SCP cells were cultured in 6-well plates to confluence. Wells were washed two times with serum free Minimal Essential Medium (MEM) to remove FBS. 0.2 ml of virus was added per well in MEM supplemented with 4 mM glutamine and gentamycin. After 1 hour adsorption, the virus was aspirated from each well. The appropriate concentration of each compound in 5 ml of Medium 199 (M-199) supplemented With 2% lamb serum, 4 mM glutamine, 0.5% agarose and gentamycin was added to each well. Cultures were incubated at 37° C. in a humidified 5% CO2 incubator for 3-4 weeks. To terminate the test: cultures were fixed in 10% formalin, the agar removed, the monolayers stained with 1% crystal violet and plaques counted. Each compound concentration was run in triplicate. […] 0 is no toxicity observed while 4 is total lysing of the cell monolayer.

Another data set relates to sucrase. In words: Sucrase inhibition locally in the gut. It counts as in vivo, monkey. To be noted: normal, uninfected monkeys.
Data set [4] relates to Sheep choroid plexus (SCP) cells. The data set can be described thus: Toxicity of compounds in control wells without virus, graded morphologically. It counts as cell-based. Details: key: 0: no toxicity; 4: total cell lysates. Particulars: 0 to 4 scale, Table 1. As to the method:
as §2, §3

A further data set concerns visna virus. In words: Plaque reduction assay, inhibition of visna virus in vitro. In kind it is cell-based. Details: key to Antiviral Activity: A: active compound; I: inactive compound. To be noted: Table 1.
Excerpt: Visna virus, a lentivirus genetically very similar to the AIDS virus, is pathogenic for sheep and goats. See Sonigo et al., Cell 42, 369-382 (1985); Haase, Nature 322, 130-136 (1986). Inhibition of visna virus replication in vitro as a useful model for human immunodeficiency virus (HIV) and its inhibition by test compounds has been described by Franket al., Antimicrobial Agents and Chemotherapy 31 (9), 1369-1374 (1987). The N-butyl derivative of 1,5-dideoxy-1,5-imino-D-glucitol, also referred to as n-butyl-deoxynojirimycin (N-Bu-DNJ), was used as a control standard for comparison with various novel compounds of this invention.
Various compounds as prepared above were tested for inhibition of visna virus in vitro in a plaque reduction assay as follows:
as §2, §3
Background: Plaque reduction counts the foci of infection that form in a cell layer.

Where [5] appears, read: oral [14C] pro-drug, Rhesus monkey.

The text below walks through data of patent publication US5310745A, “Antiviral compounds” (priority 1992, dated 1994).

Where two headings read alike, the source gives them in different places.

For `Cc1cn([C@H]2C[C@H](N=[N+]=[N-])[C@@H](CO)O2)c(=O)[nH]c1=O` [AZT, 3'-azido-3'-deoxythymidine], the “inhibition of virus replication in vitro” value with HIV (in vitro) is on record as “inhibit replication of the virus in vitro”.
`CN1C[C@H](O)[C@@H](O)[C@H](O)[C@H]1CO` [Example 9, 1,5-(Methylimino)-1,5-dideoxy-D-glucitol]: the HIV inhibitory activity result in the data set on HIV is on record as “HIV inhibitory activity”.
In the case of `CCCCN1C[C@H](OC(=O)CCC)[C@@H](OC(=O)CCC)[C@H](OC(=O)CCC)[C@H]1COC(=O)CCC` [Example 16, 1,5-(Butylimino)-1,5-dideoxy-D-glucitol, tetrabutyrate], the “metabolic transformation in vivo” value was “controlled, sustained levels of a metabolite” in data set [1] and “controlled, sustained levels of a metabolite” in data set [2] (Rhesus monkey). The “parent pro-drug in plasma” value in data set [1] (oral [14C] pro-drug) and in data set [2] (setting [5]) was “not detected” throughout. Further, the “radiolabeled compound in plasma after oral pro-drug” value in data set [1] (oral [14C] pro-drug) and in data set [2] (setting [5]) was “yielded only [^14 C]SC-metabolite compound in the plasma” in each case. Moreover, the “parent pro-drug in portal plasma” value in data set [1] (oral, portal plasma) is reported as “no parent pro-drug detected”. The “metabolic profiles of either radiolabeled compound (pro-drug, metabolite)” value in data set [2] was “the same in plasma and urine”. Also, in the data set “Diarrheagenic effect”, the diarrheagenic results is “negative diarrheagenic results”. For the same compound, the Toxicity in data set [3] (0.1 mM) came to 1; in data set [4] (0.001 mM), 0; in data set [4] (0.01 mM), 0; in data set [4] (1.0 mM), 4. Moreover, the “inhibition of sucrase locally in the gut” value in the data set with sucrase is “does not significantly inhibit sucrase locally in the gut”. Moreover, the “Antiviral Activity” value with visna virus (0.001 mM) is “A”; in the data set with visna virus (0.01 mM), “A”; in the data set on visna virus (0.1 mM), “A”; in the data set with visna virus (1.0 mM) it was “Toxic”.
With `CCCCN1C[C@H](OC(=O)c2ccccc2)[C@@H](OC(=O)c2ccccc2)[C@H](OC(=O)c2ccccc2)[C@H]1COC(=O)c1ccccc1` [Example 18, 1,5-(Butylimino)-1,5-dideoxy-D-glucitol, tetrabenzoate], the Toxicity was 1 in data set [3] (0.1 mM) and 0 in data set [4] (1.0 mM). The “Antiviral Activity” value in the data set with visna virus (0.1 mM) and in the data set with visna virus (1.0 mM) was “A” in each case.
On to `CC(=O)OC[C@@H]1[C@@H](OC(C)=O)[C@H](OC(C)=O)[C@@H](OC(C)=O)CN1C(=O)CCc1ccccc1` [Example 20, 1,5-(Hydrocinnamoylimino)-1,5-dideoxy-D-glucitol, tetraacetate], for which the Toxicity was found to be 1 in data set [3] (0.1 mM), 2 in data set [3] (1.0 mM) and 0 in data set [4] (0.01 mM). For the same compound, the “Antiviral Activity” value in the data set with visna virus (0.01 mM), in the data set on visna virus (0.1 mM) and in the data set on visna virus (1.0 mM) was “A” each time.
Regarding `CCCCN1C[C@H](O)[C@@H](O)[C@H](O)[C@H]1CO` [N-Bu-DNJ, 1,5-(Butylimino)-1,5-dideoxy-D-glucitol, reference compound], the “metabolic profiles of either radiolabeled compound (pro-drug, metabolite)” value in data set [2] was “the same in plasma and urine”. Besides, the Toxicity in data set [3] (0.1 mM) worked out at 1; in data set [3] (1.0 mM) it was 2; in data set [4] (0.001 mM) it was 0; in data set [4] (0.01 mM), 0. The results for the HIV inhibitory activity result in the data set with HIV and in the data set with HIV (listed as N-butyl derivative of deoxynojirimycin) were “HIV inhibitory activity” and “substantially more effective anti-HIV activity”, respectively. Besides, the “Antiviral Activity” value in the data set with visna virus (0.001 mM) is “I”; with visna virus (0.01 mM), “I”; in the data set on visna virus (0.1 mM) it was “A”; in the data set with visna virus (1.0 mM), “A”.
In the case of `OC[C@H]1NC[C@H](O)[C@@H](O)[C@@H]1O` [deoxynojirimycin, 1,5-dideoxy-1,5-imino-D-glucitol], in the data set on HIV, the HIV inhibitory activity entry is given as “HIV inhibitory activity”.
